This data set can be described thus: Modulated differential scanning calorimetry (glass transition in the reversing signal). It counts as physicochemical. On the procedure: Modulated Differential scanning calorimetry (MDSC) was performed to evaluate the thermal characteristics before and after melt extrusion with injection of pressurized carbon dioxide. […] A glass transition is observed as an inflection in the DSC profile when heat flow is plotted against temperature. Often, the glass transition is accompanied with an enthalpy relaxation, which is seen as an endothermic signal superimposed on the glass transition. Furthermore, these polymers can be hydrophilic and thus they may have adsorbed a significant amount of water. Evaporation of water is also an endothermic process. These signals make interpretation of the glass transition difficult. Therefore, MDSC was used so that the different thermal events could be elucidated with regard to the reversible and non-reversible transitions. […]
The measurements were performed using a TA Instruments modulated DSC Q1000 differential scanning calorimeter and thermal analysis controller (TA Instruments, New Castle, Del., USA). […] The samples were analysed in standard (open) aluminum as well as in hermetically sealed TA Instruments pans. […] The glass transition was measured at the inflection point as half the height of the shift in the heat flow signal (Tg 1/2 cp). […]
The samples measured in open pans as well as in hermetically sealed pans were analysed at least in duplicate.
A general note: Differential scanning calorimetry records heat flow against a reference as temperature is scanned.

For `CCC(C)n1ncn(-c2ccc(N3CCN(c4ccc(OCC5COC(Cn6cncn6)(c6ccc(Cl)cc6Cl)O5)cc4)CC3)cc2)c1=O` (stereo not shown) [itraconazole], the “Melting enthalpy ΔH of pure itraconazole” value was determined as 85 J/g.

The record behind these values is patent publication US20070098801A1, “Particles shaped as platelets” (JANSSEN PHARMACEUTICA N.V., priority 2003, published 2007).
